# Measurements as given in patent US11572590B2, “Methods for evaluating tumor cell spheroids using 3D microfluidic cell culture device” (Dana-Farber Cancer Institute, Inc., priority 2017, dated 2023).
# Like-named read-outs stand apart in the source and are kept apart here.
# How the values were obtained:
# off-target kinases [1] = biological target: T1, off-target kinases (Homo sapiens, UniProt Q6PHR2); assay: SelectScreen Kinase Profiling, single point inhibition and IC50 for off-target kinases; format: biochemical; conditions: ULK3, LanthaScreen Binding
# T1 sequence (Q6PHR2 1-472): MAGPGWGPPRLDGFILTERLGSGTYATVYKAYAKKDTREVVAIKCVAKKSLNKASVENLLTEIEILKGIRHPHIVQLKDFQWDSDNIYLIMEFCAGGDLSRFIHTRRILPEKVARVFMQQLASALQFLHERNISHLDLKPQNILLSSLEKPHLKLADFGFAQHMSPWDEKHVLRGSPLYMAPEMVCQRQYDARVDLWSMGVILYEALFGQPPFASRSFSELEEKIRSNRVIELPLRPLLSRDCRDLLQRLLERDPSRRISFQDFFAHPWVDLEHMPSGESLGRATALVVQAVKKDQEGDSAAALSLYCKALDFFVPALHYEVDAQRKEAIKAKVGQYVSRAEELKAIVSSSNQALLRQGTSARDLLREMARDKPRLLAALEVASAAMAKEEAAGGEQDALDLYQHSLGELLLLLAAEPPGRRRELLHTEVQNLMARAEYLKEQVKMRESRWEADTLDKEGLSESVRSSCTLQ
# off-target kinases [2] = biological target: T2, off-target kinases (Homo sapiens, UniProt Q8TD19); assay: as above; format: biochemical; conditions: NEK9, ATP Km app, ZLYTE
# T2 sequence (Q8TD19 1-979): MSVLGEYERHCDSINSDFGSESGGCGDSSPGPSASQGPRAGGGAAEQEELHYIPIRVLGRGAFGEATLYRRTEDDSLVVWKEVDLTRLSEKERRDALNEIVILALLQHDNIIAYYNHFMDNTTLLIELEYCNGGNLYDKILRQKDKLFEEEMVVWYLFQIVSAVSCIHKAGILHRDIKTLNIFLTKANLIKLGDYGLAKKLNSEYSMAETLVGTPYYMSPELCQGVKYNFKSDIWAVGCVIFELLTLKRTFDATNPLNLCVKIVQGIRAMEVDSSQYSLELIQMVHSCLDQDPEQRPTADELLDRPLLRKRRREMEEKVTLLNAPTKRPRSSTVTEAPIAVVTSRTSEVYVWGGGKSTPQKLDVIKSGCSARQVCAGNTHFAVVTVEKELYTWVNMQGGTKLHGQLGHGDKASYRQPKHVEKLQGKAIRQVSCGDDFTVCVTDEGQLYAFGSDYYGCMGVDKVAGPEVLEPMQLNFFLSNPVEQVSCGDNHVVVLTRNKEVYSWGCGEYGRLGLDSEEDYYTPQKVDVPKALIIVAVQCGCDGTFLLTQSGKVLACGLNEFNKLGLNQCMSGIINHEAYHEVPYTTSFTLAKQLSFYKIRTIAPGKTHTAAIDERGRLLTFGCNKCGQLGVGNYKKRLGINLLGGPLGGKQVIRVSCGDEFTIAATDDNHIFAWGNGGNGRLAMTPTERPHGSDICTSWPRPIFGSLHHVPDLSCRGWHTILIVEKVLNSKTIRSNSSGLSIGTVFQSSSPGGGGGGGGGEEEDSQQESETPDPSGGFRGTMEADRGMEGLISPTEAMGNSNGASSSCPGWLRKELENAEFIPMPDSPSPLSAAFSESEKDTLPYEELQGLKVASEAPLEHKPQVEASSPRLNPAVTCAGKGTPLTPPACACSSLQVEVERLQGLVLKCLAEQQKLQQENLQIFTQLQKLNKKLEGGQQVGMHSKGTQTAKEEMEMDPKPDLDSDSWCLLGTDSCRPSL
smiles,measurement,setting,value
"N#Cc1cc(-c2ncnc(Nc3ccc(N4CCN(C5COC5)CC4)cc3)n2)ccc1OC1CCOCC1 [Compound 1, 5-(4-((4-(4-(oxetan-3-yl)piperazin-1-yl)phenyl)amino)-1,3,5-triazin-2-yl)-2-((tetrahydro-2H-pyran-4-yl)oxy)benzonitrile]",inhibition,off-target kinases [1]; read-out: % Inhibition 1,101%
same,inhibition,off-target kinases [1]; read-out: % Inhibition 2,104%
same,inhibition,off-target kinases [1]; read-out: % Inhibition Avg,102%
same,inhibition,off-target kinases [2]; read-out: % Inhibition 1,46%
same,inhibition,off-target kinases [2]; read-out: % Inhibition 2,45%
same,inhibition,off-target kinases [2]; read-out: % Inhibition Avg,46%
